The values that follow come from paper PMC8213057, “Targeting ALK2: An Open Science Approach to Developing Therapeutics for the Treatment of Diffuse Intrinsic Pontine Glioma” (Journal of Medicinal Chemistry, 2020).

The target in test [1] is PKCeta (Homo sapiens, UniProt P24723). As to conditions: 1 μM; Run 1, Run 2.
Test [2] addresses TRKB (Homo sapiens, UniProt Q16620). Nature of the test: biochemical. As to conditions: read-out: % enzyme activity, 1 μM; Run 1, Run 2.
In test [3] the target is PKCd (Homo sapiens, UniProt Q05655). Nature of the test: biochemical. Particulars: read-out: % enzyme activity, 1 μM; Run 1, Run 2.
The target of test [4] is CDK17/cyclin Y (PCTK2) (Homo sapiens, UniProt Q00537). Nature of the test: biochemical. As to conditions: read-out: % enzyme activity, 1 μM; Run 1, Run 2.
Test [5] has as its target MARK1 (Homo sapiens, UniProt Q9P0L2). Nature of the test: biochemical. As to conditions: read-out: % enzyme activity, 1 μM; Run 1, Run 2.
Test [6] concerns the target MAST3 (Homo sapiens, UniProt O60307). As to conditions: 1 μM; Run 1, Run 2.
For test [7], the target named is FGFR3 (Homo sapiens, UniProt P22607). The test can be described thus: biochemical. As to conditions: read-out: % enzyme activity, 1 μM; Run 1, Run 2.
In test [8] the target is GRK6 (Homo sapiens, UniProt P43250). As to conditions: 1 μM; Run 1, Run 2.
Test [9] has as its target T1, NEK8 (Homo sapiens, UniProt Q86SG6).
T1 sequence (Q86SG6 1-692): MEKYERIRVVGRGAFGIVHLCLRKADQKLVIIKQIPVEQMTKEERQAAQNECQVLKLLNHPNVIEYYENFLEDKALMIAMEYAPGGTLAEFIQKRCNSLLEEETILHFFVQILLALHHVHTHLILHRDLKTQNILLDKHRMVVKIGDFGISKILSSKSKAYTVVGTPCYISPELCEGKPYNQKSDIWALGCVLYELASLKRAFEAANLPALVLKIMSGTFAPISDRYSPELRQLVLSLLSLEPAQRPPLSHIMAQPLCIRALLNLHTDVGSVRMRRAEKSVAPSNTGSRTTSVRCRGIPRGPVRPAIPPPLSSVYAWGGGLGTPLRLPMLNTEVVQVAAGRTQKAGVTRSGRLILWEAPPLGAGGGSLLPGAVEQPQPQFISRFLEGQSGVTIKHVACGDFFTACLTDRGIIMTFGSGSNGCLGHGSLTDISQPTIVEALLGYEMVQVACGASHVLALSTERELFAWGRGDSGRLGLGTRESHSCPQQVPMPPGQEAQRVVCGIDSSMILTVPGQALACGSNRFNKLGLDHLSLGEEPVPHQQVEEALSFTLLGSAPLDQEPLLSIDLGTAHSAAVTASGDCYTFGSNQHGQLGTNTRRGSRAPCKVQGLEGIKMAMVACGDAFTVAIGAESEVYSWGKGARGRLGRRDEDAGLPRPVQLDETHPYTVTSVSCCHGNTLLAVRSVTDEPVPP
Nature of the test: biochemical. Particulars: read-out: % enzyme activity, 1 μM; Run 1, Run 2.

Test [10] deals with T2, KSR2 (Homo sapiens, UniProt Q6VAB6).
T2 sequence (Q6VAB6 1-950): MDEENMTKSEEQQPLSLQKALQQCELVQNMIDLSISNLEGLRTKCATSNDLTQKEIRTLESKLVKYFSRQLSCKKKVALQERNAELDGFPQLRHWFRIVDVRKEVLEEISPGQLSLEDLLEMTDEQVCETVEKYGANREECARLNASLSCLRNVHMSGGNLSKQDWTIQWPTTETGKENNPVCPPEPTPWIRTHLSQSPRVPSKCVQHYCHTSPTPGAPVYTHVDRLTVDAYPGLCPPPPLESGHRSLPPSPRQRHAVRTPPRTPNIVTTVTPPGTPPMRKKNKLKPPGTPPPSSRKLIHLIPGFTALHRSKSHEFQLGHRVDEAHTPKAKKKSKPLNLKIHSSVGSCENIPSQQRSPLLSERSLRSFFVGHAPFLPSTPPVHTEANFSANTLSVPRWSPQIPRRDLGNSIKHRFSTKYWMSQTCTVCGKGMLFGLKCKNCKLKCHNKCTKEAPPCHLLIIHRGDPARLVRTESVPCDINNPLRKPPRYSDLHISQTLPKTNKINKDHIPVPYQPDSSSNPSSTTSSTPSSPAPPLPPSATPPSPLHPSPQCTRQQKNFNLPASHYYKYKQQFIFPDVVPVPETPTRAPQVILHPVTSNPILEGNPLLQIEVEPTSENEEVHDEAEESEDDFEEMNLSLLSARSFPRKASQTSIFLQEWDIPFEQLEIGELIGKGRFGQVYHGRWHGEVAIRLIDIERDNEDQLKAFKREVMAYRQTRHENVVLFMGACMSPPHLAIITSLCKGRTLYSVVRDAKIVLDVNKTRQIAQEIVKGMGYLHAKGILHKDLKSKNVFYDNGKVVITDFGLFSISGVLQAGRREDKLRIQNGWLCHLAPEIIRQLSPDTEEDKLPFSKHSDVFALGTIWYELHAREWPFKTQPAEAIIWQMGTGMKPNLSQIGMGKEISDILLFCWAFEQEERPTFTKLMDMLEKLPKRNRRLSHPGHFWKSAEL
The test can be described thus: biochemical. As to conditions: read-out: % enzyme activity, 1 μM; Run 1, Run 2.

For test [11], the target named is FAK/PTK2 (Homo sapiens, UniProt Q05397). As to conditions: 1 μM; Run 1, Run 2.
The target in test [12] is CDK19/cyclin C (Homo sapiens, UniProt Q9BWU1). As to conditions: 1 μM; Run 1, Run 2.
Chain of CDK19/cyclin C (Q9BWU1 whole entry): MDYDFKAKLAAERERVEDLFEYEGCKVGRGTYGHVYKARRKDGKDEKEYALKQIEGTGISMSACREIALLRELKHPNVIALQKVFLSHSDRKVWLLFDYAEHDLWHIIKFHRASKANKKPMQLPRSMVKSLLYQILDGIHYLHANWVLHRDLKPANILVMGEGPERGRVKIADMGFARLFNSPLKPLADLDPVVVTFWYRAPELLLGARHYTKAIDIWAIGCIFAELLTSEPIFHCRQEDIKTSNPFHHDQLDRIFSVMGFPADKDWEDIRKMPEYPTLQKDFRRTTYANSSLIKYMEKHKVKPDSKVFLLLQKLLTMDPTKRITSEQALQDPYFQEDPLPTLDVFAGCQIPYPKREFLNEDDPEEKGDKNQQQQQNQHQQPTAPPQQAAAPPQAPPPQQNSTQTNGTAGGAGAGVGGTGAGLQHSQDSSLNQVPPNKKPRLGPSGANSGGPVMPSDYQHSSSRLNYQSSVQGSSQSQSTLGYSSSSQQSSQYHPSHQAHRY
Chain of CDK19/cyclin C (P24863 whole entry partner): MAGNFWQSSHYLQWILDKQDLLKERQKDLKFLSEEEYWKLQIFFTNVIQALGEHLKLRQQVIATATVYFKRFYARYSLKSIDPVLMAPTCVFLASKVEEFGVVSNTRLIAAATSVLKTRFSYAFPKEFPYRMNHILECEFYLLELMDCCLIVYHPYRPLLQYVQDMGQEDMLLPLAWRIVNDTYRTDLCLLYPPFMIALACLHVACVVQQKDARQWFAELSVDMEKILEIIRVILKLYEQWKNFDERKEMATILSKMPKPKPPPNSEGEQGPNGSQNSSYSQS

Chain of FAK/PTK2 (Q05397 whole entry): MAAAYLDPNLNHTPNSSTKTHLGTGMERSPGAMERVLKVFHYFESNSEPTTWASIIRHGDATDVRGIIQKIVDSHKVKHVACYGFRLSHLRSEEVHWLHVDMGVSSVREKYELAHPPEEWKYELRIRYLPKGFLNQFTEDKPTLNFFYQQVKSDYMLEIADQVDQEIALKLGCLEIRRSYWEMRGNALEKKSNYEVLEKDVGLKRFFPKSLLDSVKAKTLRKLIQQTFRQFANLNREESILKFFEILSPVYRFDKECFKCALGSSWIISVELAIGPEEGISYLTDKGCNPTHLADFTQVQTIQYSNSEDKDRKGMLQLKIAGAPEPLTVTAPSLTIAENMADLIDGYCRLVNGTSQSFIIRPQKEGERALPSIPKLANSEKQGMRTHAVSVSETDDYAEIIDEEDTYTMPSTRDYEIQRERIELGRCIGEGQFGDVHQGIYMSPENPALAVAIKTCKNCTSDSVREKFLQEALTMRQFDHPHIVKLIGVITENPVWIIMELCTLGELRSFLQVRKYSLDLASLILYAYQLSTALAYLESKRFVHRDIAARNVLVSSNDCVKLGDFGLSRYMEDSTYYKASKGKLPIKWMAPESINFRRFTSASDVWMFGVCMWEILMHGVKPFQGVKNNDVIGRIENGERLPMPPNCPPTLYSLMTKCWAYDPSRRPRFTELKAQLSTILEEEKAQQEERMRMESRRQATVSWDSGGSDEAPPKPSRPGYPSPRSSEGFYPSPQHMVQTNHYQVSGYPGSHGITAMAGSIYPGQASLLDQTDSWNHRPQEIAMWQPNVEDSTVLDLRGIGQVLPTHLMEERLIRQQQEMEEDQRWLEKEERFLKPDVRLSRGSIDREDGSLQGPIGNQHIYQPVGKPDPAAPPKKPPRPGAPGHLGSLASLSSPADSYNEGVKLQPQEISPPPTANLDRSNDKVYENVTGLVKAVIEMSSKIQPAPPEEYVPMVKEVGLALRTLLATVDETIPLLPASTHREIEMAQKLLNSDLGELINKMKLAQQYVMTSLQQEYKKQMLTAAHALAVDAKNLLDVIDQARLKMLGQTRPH
Chain of FGFR3 (P22607 23-806): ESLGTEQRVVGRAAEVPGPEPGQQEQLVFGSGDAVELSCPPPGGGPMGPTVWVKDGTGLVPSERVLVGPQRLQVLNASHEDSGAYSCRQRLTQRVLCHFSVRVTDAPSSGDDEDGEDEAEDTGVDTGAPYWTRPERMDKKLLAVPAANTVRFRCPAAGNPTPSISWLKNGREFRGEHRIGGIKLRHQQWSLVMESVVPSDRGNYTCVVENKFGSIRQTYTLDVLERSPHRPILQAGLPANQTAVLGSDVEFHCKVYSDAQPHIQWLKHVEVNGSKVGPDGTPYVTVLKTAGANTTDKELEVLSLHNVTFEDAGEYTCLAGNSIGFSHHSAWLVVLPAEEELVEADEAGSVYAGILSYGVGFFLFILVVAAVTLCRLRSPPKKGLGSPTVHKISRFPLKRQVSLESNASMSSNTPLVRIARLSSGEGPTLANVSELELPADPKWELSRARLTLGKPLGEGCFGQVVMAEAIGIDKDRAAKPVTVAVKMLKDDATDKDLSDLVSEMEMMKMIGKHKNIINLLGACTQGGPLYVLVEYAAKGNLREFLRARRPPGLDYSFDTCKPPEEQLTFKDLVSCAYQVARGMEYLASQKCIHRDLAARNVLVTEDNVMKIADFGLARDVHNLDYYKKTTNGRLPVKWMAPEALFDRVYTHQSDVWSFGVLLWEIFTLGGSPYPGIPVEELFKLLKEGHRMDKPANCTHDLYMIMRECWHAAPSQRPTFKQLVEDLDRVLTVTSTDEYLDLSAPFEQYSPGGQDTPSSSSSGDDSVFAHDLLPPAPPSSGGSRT
Chain of PKCd (Q05655 whole entry): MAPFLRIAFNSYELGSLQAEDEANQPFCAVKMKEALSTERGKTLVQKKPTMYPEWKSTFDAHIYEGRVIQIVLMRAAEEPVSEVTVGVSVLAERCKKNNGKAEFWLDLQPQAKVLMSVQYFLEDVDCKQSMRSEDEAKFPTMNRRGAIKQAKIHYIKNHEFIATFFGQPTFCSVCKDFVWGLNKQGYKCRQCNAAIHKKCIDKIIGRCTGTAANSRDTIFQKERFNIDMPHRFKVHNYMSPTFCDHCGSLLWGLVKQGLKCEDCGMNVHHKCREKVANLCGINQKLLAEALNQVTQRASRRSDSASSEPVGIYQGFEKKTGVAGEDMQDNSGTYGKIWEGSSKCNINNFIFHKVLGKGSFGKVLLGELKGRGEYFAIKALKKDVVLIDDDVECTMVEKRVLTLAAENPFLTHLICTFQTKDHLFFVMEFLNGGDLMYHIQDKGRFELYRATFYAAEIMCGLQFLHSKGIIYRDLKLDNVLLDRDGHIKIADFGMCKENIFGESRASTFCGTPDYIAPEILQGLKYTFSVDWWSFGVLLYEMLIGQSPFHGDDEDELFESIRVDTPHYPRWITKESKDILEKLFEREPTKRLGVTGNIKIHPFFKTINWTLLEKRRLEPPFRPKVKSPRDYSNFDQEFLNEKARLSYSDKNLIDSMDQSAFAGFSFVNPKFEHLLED
Chain of MAST3 (O60307 whole entry): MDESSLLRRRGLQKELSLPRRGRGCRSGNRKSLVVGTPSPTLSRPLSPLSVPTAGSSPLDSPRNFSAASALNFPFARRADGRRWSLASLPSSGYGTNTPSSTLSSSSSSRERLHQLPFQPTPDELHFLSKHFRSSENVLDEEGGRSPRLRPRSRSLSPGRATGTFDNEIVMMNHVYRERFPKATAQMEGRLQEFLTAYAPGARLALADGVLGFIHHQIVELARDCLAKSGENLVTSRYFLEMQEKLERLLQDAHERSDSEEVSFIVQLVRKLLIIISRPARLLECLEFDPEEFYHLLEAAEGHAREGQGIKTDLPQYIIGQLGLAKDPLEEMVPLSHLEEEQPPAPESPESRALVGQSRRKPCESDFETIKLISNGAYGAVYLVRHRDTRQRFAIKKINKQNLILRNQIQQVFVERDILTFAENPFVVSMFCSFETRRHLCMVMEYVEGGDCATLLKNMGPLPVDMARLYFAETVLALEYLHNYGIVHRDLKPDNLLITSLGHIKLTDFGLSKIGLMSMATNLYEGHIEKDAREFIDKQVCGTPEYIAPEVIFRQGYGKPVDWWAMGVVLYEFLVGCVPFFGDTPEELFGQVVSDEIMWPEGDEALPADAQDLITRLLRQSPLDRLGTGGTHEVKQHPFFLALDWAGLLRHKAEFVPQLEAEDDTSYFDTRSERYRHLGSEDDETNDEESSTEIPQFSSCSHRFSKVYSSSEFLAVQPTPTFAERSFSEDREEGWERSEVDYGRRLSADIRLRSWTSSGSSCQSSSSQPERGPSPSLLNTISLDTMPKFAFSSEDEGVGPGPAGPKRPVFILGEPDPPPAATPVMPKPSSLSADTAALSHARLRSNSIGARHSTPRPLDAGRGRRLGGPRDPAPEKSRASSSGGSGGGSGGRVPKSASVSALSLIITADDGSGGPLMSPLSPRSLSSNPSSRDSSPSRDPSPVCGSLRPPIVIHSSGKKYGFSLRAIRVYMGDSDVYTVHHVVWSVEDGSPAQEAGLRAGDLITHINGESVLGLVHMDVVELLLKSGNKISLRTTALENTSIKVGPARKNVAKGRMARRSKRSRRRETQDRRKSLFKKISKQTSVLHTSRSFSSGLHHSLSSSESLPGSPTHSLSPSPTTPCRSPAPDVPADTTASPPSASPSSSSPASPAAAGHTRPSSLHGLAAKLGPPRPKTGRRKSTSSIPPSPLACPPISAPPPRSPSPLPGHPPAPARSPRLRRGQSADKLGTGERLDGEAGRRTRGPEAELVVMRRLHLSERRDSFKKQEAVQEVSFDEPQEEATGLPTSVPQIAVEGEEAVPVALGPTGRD

On to `COc1cc(-c2cncc(-c3ccc(N4CCN(C)CC4)cc3)c2C)cc(F)c1C(N)=O` [Compound 26a, 2-Fluoro-6-methoxy-4-(4-methyl-5-(4-(4-methylpiperazin-1-yl)phenyl)pyridin-3-yl)benzamide], for which the “% enzyme activity” value came out at 93.90% in [1]; 93.52% in [6]; 107.43% in [8]; 94.56% in [11]; 77.81% in test [12]. In addition, the remaining activity at 1 µM in test [2] turned out to be 100%; in test [3], 99%; in test [4], 96.1%; in test [5], 88%; in test [7], 101%; in test [9], 98.4%. Moreover, the remaining activity at 1 µM in test [10] came out at 96.9%.

Regarding `COc1cc(-c2cncc(-c3ccc(N4C[C@@H](C)N(C)[C@@H](C)C4)cc3)c2C)cc(F)c1C(N)=O` [Compound 26c, 2-Fluoro-6-methoxy-4-(4-methyl-5-(4-((3R,5S)-3,4,5-trimethylpiperazin-1-yl)phenyl)pyridin-3-yl)benzamide], the “% enzyme activity” value in test [1] stood at 98.10%; in test [6], 95.17%; in test [8], 94.12%; in test [11], 97.12%; in [12] it was 85.09%. In addition, the remaining activity at 1 µM came to 99% in test [2]; 101% in test [3]; 101% in test [4]; 94.1% in test [5]; 103% in test [7]; 109% in [9]. Further, the remaining activity at 1 µM in test [10] amounted to 98.5%.
